We go through 40 molecules from patent US9115072B2, “Compounds and method for reducing uric acid” (WELLSTAT THERAPEUTICS CORPORATION, priority 2008, dated 2015).

SMILES strings stand for the structures. Counter-ions that a name gives are not always drawn.

For this test, the target named is T1, human URAT1 (Homo sapiens, UniProt Q96S37).
T1 construct: The full-length hURAT1 cDNA was obtained from the vector pCMV6-XL5 and subcloned into the expression vector pCMV6-Neo
T1 sequence (Q96S37 1-553): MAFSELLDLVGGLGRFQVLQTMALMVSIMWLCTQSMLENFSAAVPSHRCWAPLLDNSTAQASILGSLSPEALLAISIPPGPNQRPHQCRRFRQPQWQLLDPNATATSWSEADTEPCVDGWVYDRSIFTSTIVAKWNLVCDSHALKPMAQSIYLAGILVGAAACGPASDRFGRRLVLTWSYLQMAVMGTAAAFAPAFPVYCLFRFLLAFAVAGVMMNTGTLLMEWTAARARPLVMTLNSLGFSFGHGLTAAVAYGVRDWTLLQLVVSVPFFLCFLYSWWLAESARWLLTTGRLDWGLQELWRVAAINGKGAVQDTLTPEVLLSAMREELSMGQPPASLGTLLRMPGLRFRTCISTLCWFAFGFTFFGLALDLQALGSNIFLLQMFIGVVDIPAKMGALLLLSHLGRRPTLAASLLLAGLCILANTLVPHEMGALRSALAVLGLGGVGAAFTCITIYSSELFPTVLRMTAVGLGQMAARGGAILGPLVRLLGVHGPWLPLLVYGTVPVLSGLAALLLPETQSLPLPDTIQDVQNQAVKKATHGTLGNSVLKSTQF
The test can be described thus: URAT1 inhibition assay, [8-14C] urate uptake in hURAT1-HEK cells. Format: cell-based. As to conditions: 50 μM [8-14C] urate; for inhibition at 10 µM: drug concentration typically 10 micromolar, read-out: % of Inhibition (uric acid uptake). The method, then:
A suitable assay involves transfection of cells (e.g. human embryonic kidney cells; “HEK”) with a vector encoding human URAT1, followed by determination of the ability of transfected cells to take up radiolabeled uric acid. The activity of compounds as URAT1 inhibitors is evaluated by their ability to block uric acid uptake by transfected cells.
Urate (50-60 mCi/mmol; American Radio Chemicals, Cat. No. ARC0513).
Plasmid vector pCMV6-XL5 containing hURAT1 cDNA (Cat. No. SC125624) and the expression vector pCMV6-Neo (Cat. No. pCMVNEO) were obtained from OriGene Technologies, Inc. The full-length hURAT1 cDNA was obtained from the vector pCMV6-XL5 and subcloned into the expression vector pCMV6-Neo to create the hURAT1 expression plasmid pCMV6-hURAT1. The sequences were verified by automatic DNA sequencing.
For transfection experiments, cells were plated on 60 mm dishes in 1 ml media per dish. […] Stable transfectants expressing hURAT1 (herein after referred as hURAT1-HEK cells) or cells having only the expression vector pCMV6-Neo (herein after referred as mock-HEK cells) were verified using reverse transcription polymerase chain reaction (RT-PCR) methods.
Before the uptake assay started, the culture medium was removed and the cells were incubated for 5 min in 0.6 ml of HBSS. After that HBSS was removed, the prepared reaction solutions were added into each well and incubated for 5 min at room temperature. Then the reaction solution was removed, cells were washed twice with 0.6 ml of cold HBSS and lysed with 0.2 ml of 0.1 M NaOH for 20 min. […] Test compounds were dissolved in DMSO and the same concentration of DMSO was added into the wells of mock-HEK cells and the hURAT1-HEK cells that didn't contain test compounds. For each test compound, the uptake assay was performed 2 times and carried out in triplicate. Urate uptake of the cells for each test condition was presented as the average percent inhibition in comparison to the DMSO control. The radioactivity values obtained for the wells that contained DMSO were taken as 100% uptake of the cells. The observed concentration-percent inhibition data were fitted to a sigmoidal concentration-effect model, where: IC50^Slope=[(100*Conc^Slope)/% Inhibition]−Conc^Slope
Additional drug concentrations were tested for determination of IC-50 values for some compounds (Table 6).

The inhibition is the percentage by which the read-out fell short of the control. With `O=C(O)CCC(=O)c1ccc(OCc2c(F)cccc2F)cc1` [AH, 4-(4-(2,6-Difluorobenzyloxy)phenyl)-4-oxobutanoic acid], the inhibition at 10 µM was found to be 26.8%.
Still for that read-out and setting: the value for `O=C(O)CCC(=O)c1cccc(OCC2CC2)c1` [BH, 4-(3-(Cyclopropylmethoxy)phenyl)-4-oxobutanoic acid] was 62.4%.
The IC50 is the point on the concentration scale where inhibition reaches its midpoint. As to `Cc1cccc(C)c1COc1cccc(C2(C(=O)O)CC2)c1` [EF, 1-(3-(2,6-Dimethylbenzyloxy)phenyl)cyclopropanecarboxylic acid], the midpoint of inhibition, the IC50, lay at 590 nM and the inhibition at 10 µM turned out to be 90.3%.
For `COc1cccc(OC)c1COc1cccc(CC(=O)O)c1` [DY, 2-(3-(2,6-Dimethoxylbenzyloxy)phenyl)acetic acid] the same measures were 1880 nM and 85.2%.
On the same counts, the results for `Cc1cccc(C)c1COc1cccc(CCC(=O)O)c1` [CM, 3-(3-(2,6-Dimethylbenzyloxy)phenyl)propanoic acid] are 1010 nM and 89%.
In the case of `Cc1cc(C)cc(COc2cccc(CC(=O)O)c2)c1` [DW, 2-(3-(3,5-Dimethylbenzyloxy)phenyl)acetic acid], the inhibition at 10 µM stood at 54%.
Same read-out and setting: the same measure for `O=C(O)Cc1cccc(OCc2ccccc2)c1` [DZ, 2-(3-(Benzyloxy)phenyl)acetic acid]: 26.9%.
Take `Cc1cccc(C)c1COc1cccc(CCCCC(=O)O)c1` [CK, 5-(3-(2,6-Dimethylbenzyloxy)phenyl)pentanoic acid]: 2690 nM corresponded to half-maximal inhibition (IC50) and the inhibition at 10 µM came to 88%.
On the same counts, the results for `CCC(C(=O)O)c1cccc(OCc2c(C)cccc2C)c1` (stereo not shown) [DV, 2-(3-(2,6-Dimethylbenzyloxy)phenyl)butanoic acid] are 890 nM and 79.5%.
For `COc1ccccc1COc1ccc(C(=O)CCC(=O)O)cc1` [AB, 4-(4-(2-Methoxybenzyloxy)phenyl)-4-oxobutanoic acid], the inhibition at 10 µM came out at 3.7%.
On the same count and under the same terms, the value for `O=C(O)CCC(=O)c1ccc(OCc2ccccc2Cl)cc1` [AI, 4-(4-(2-Chlorobenzyloxy)phenyl)-4-oxobutanoic acid] was 2.3%; that for `Cc1cccc(C)c1COc1cccc(C(=O)CCCC(=O)O)c1` [CD, 5-(3-(2,6-Dimethylbenzyloxy)phenyl)-5-oxopentanoic acid] was 63.5%; that for `COC(=O)CC(=O)c1cccc(OCc2c(C)cccc2C)c1` [EB, Methyl 3-(3-(2,6-dimethylbenzyloxy)phenyl)-3-oxopropanoate] was 21.6%.
`Cc1cccc(C)c1COc1cccc(CC(=O)O)c1` [CF, 3-(2,6-Dimethylbenzyloxy)phenylacetic acid]: inhibition was half-maximal at 530 nM (IC50) and the inhibition at 10 µM amounted to 96.5%.
`O=C(O)CCC(=O)c1cccc(OCc2c(Cl)cccc2Cl)c1` [DS, 4-(3-(2,6-Dichlorobenzyloxy)phenyl)-4-oxobutanoic acid]: the inhibition at 10 µM stood at 75%.
As for `Cc1cccc(F)c1COc1cccc(C(=O)CCC(=O)O)c1` [BJ, 4-(3-(2-Fluoro-6-methylbenzyloxy)phenyl)-4-oxobutanoic acid], the inhibition at 10 µM was found to be 81.8%.
The same measure, in the same setting: the same measure for `O=C(O)Cc1cccc(OCc2c(F)cccc2F)c1` [DR, 2-(3-(2,6-Difluorobenzyloxy)phenyl)acetic acid]: 68.3%.
Still for that read-out and setting: the same measure for `O=C(O)CCC(=O)c1ccc(OCc2ccccn2)cc1` [AF, 4-oxo-4-(4-(pyridin-2-ylmethoxy)phenyl)butanoic acid]: 41.3%.
Still for that read-out and setting: the same measure for `Cc1cccc(C)c1COc1cccc(C(C)C(=O)O)c1` (stereo not shown) [DT, 2-(3-(2,6-Dimethylbenzyloxy)phenyl)propanoic acid]: 89.1%.
In turn, `Cc1cccc(C)c1COc1cccc(C(C)C(=O)O)c1` (stereo not shown) [EC, 2-(3-(2,6-Dimethylbenzyloxy)phenyl)propanoic acid] displayed a concentration for half-maximal inhibition (IC50) of 330 nM.
With `O=C(O)CCC(=O)c1ccc(OCc2ccccc2)cc1` [AG, 4-(4-(Benzyloxy)phenyl)-4-oxobutanoic acid], the inhibition at 10 µM stood at 5.99%.
On the same count and under the same terms, the same measure for `COc1cc(C(=O)CCC(=O)O)ccc1OCc1c(C)cccc1C` [BT, 4-(4-(2,6-Dimethylbenzyloxy)-3-methoxyphenyl)-4-oxobutanoic acid]: 51.8%; for `CN(CCOc1ccc(C(=O)CCC(=O)O)cc1)Cc1ccccc1F` [AM, 4-(4-(2-((2-Fluorobenzyl)(methyl)amino)ethoxy)phenyl)-4-oxobutanoic acid hydrochloride]: 0%; for `Cc1ccc(COc2cccc(CC(=O)O)c2)c(C)c1` [DX, 2-(3-(2,4-Dimethylbenzyloxy)phenyl)acetic acid]: 64%.
Still for that read-out and setting: the value for `O=C(O)CCC(=O)c1cccc(OCc2c(F)cccc2F)c1` [AW, 4-(3-(2,6-Difluorobenzyloxy)phenyl)-4-oxobutanoic acid] was 61.9%.
The same measure, in the same setting: the value for `Cc1cccc(C)c1COc1cccc([C@H](O)CCC(=O)O)c1` [CR, 4-(3-(2,6-Dimethylbenzyloxy)-phenyl)-4(R)-hydroxybutanoic acid] was 60.6%.
On to `Cc1cccc(C)c1COc1ccc(CC(=O)O)cc1` [DO, 2-(4-(2,6-Dimethylbenzyloxy)phenyl)acetic acid], for which the inhibition at 10 µM is 80.3%.
For `Cc1ccc(C)c(COc2ccc(C(=O)CCC(=O)O)cc2)c1` [AT, 4-(4-(2,5-Dimethylbenzyloxy)phenyl)-4-oxobutanoic acid], the inhibition at 10 µM is 7.95%.
On the same count and under the same terms, the same measure for `Cc1ccccc1COc1cccc(C(=O)CCC(=O)O)c1` [AN, 4-(3-(2-Methylbenzyloxy)phenyl)-4-oxobutanoic acid]: 54.4%; for `O=C(O)CCC(=O)c1ccc(OCc2ccccc2C(F)(F)F)cc1` [AY, 4-(4-(2-Trifluoromethylbenzyloxy)phenyl)-4-oxobutanoic acid]: 8.9%; for `Cc1cccc(Cl)c1COc1cccc(CC(=O)O)c1` [EG, 2-(3-(2-Chloro-6-methylbenzyloxy)phenyl)acetic acid]: 89.7%.
On to `O=C(O)Cc1cccc(OCc2ccc(C(F)(F)F)cc2C(F)(F)F)c1` [DN, 2-(3-(2,4-bis(trifluoromethyl)benzyloxy)phenyl)acetic acid], for which the inhibition at 10 µM worked out at 45.4%.
For the molecule `Cc1cccc(C)c1COc1cccc(C(C)(C)C(=O)O)c1` [EE, 2-(3-(2,6-Dimethylbenzyloxy)phenyl)-2-methylpropanoic acid], the inhibition at 10 µM was found to be 90.1%.
Turning to `COc1ccc(CC(=O)O)cc1OCc1c(C)cccc1C` [DQ, 2-(3-(2,6-Dimethylbenzyloxy)-4-methoxyphenyl)acetic acid], the IC50 came to 180 nM and the inhibition at 10 µM stood at 99.4%.
As for `Cc1cccc(C)c1COc1cc(CC(=O)O)ccc1F` [EI, 2-(3-(2,6-Dimethylbenzyloxy)-4-fluorophenyl)acetic acid], the inhibition at 10 µM is 93%.
Same read-out and setting: the same measure for `O=C(O)Cc1cccc(OCc2ccc(C(F)(F)F)cc2)c1` [DU]: 30.5%; for `Cc1cccc(C)c1COc1ccc(C(=O)CCC(=O)O)cc1` [BM, 4-(4-(2,6-Dimethylbenzyloxy)phenyl)-4-oxobutanoic acid]: 22.2%.
`Cc1cccc(C)c1COc1cccc(C(=O)C(=O)O)c1` [CQ, 2-(3-(2,6-Dimethylbenzyloxy)phenyl)-2-oxoacetic acid]: the IC50 was determined as 1330 nM and the inhibition at 10 µM amounted to 84.8%.
Take `Cc1cccc(C)c1COc1cccc(CCCC(=O)O)c1` [BS, 4-(3-(2,6-Dimethylbenzyloxy)phenyl)butanoic acid]: the inhibition at 10 µM came to 28.6%.
For the molecule `Cc1cccc(C)c1COc1cccc(C(=O)CC(C)(C)C(=O)O)c1` [BP, 4-(3-(2,6-Dimethylbenzyloxy)phenyl)-2,2-dimethyl-4-oxobutanoic acid], the IC50 was found to be 4390 nM and the inhibition at 10 µM was 76.5%.
